System: HOP-62 complex spheroids with HUVEC/MSC, viability
Test: Anticancer human tumor HOP-62 cell line growth inhibition [RAS];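 also: spheroids exposed to agents for seven days before readout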;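 as to viability, T/C: 100% = DMSO vehicle control viability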
Conditions: for IC50: curve of first compound; for viability, T/C: stronger effect = lower value
In short: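 Multi-cell-type spheroids: tumor cells plus HUVEC endothelial cells and mesenchymal stem cells. RAS-pathway inhibitors were combined with targeted agents, each dosed in half-log steps down from clinical Cmax, or from 10 microM when Cmax was unknown.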

[1] = second compound 0.000949 µM, first compound 0.0316 µM
[2] = second compound 0.000949 µM, first compound 0.1 µM
[3] = second compound 0.000949 µM, first compound 0.316 µM
[4] = second compound 0.000949 µM, first compound 1 µM
[5] = second compound 0.000949 µM, first compound 3.16 µM
[6] = second compound 0.000949 µM, first compound 10 µM
[7] = second compound 0.003 µM, first compound 0.0316 µM
[8] = second compound 0.003 µM, first compound 0.1 µM
[9] = second compound 0.003 µM, first compound 0.316 µM
[10] = second compound 0.003 µM, first compound 1 µM
[11] = second compound 0.003 µM, first compound 3.16 µM
[12] = second compound 0.003 µM, first compound 10 µM
[13] = second compound 0.00949 µM, first compound 0.0316 µM
[14] = second compound 0.00949 µM, first compound 0.1 µM
[15] = second compound 0.00949 µM, first compound 0.316 µM
[16] = second compound 0.00949 µM, first compound 1 µM
[17] = second compound 0.00949 µM, first compound 3.16 µM
[18] = second compound 0.00949 µM, first compound 10 µM
[19] = second compound 0.03 µM, first compound 0.0316 µM
[20] = second compound 0.03 µM, first compound 0.1 µM
[21] = second compound 0.03 µM, first compound 0.316 µM
[22] = second compound 0.03 µM, first compound 1 µM
[23] = second compound 0.03 µM, first compound 3.16 µM
[24] = second compound 0.03 µM, first compound 10 µM
[25] = second compound 0.0949 µM, first compound 0.0316 µM
[26] = second compound 0.0949 µM, first compound 0.1 µM
[27] = second compound 0.0949 µM, first compound 0.316 µM
[28] = second compound 0.0949 µM, first compound 1 µM
[29] = second compound 0.0949 µM, first compound 3.16 µM
[30] = second compound 0.0949 µM, first compound 10 µM
[31] = second compound 0.3 µM, first compound 0.0316 µM
[32] = second compound 0.3 µM, first compound 0.1 µM
[33] = second compound 0.3 µM, first compound 0.316 µM
[34] = second compound 0.3 µM, first compound 1 µM
[35] = second compound 0.3 µM, first compound 3.16 µM
[36] = second compound 0.3 µM, first compound 10 µM

## CC(=O)OC12COC1CC(O)C1(C)C(=O)C(O)C3=C(C)C(OC(=O)C(O)C(NC(=O)OC(C)(C)C)c4ccccc4)CC(O)(C(OC(=O)c4ccccc4)C21)C3(C)C (stereo unspecified) + CCn1c(-c2cc(N3CCN(C)CC3)cnc2C(C)OC)c2c3cc(ccc31)-c1csc(n1)CC(NC(=O)C1CC1C)C(=O)N1CCCC(N1)C(=O)OCC(C)(C)C2
Second compound 0.000949 µM
  IC50: < 31.6 nM
Second compound 0.003 µM
  IC50: < 31.6 nM
Second compound 0.00949 µM
  IC50: < 31.6 nM
Second compound 0.03 µM
  IC50: < 31.6 nM
Second compound 0.0949 µM
  IC50: < 31.6 nM
Second compound 0.3 µM
  IC50: < 31.6 nM
[1]
  viability, T/C: 41.1%
[2]
  viability, T/C: 34.9%
[3]
  viability, T/C: 28.9%
[4]
  viability, T/C: 43.6%
[5]
  viability, T/C: 42.7%
[6]
  viability, T/C: 42.6%
[7]
  viability, T/C: 44.1%
[8]
  viability, T/C: 38.5%
[9]
  viability, T/C: 33.4%
[10]
  viability, T/C: 30.6%
[11]
  viability, T/C: 36.6%
[12]
  viability, T/C: 35%
[13]
  viability, T/C: 42.4%
[14]
  viability, T/C: 28.5%
[15]
  viability, T/C: 31.5%
[16]
  viability, T/C: 37%
[17]
  viability, T/C: 35.9%
[18]
  viability, T/C: 33.4%
[19]
  viability, T/C: 44.1%
[20]
  viability, T/C: 35.1%
[21]
  viability, T/C: 31.1%
[22]
  viability, T/C: 30.8%
[23]
  viability, T/C: 30.4%
[24]
  viability, T/C: 40.1%
[25]
  viability, T/C: 32.3%
[26]
  viability, T/C: 33.6%
[27]
  viability, T/C: 31.5%
[28]
  viability, T/C: 32.9%
[29]
  viability, T/C: 33.6%
[30]
  viability, T/C: 32.6%
[31]
  viability, T/C: 37%
[32]
  viability, T/C: 30.9%
[33]
  viability, T/C: 39%
[34]
  viability, T/C: 31.7%
[35]
  viability, T/C: 27.9%
[36]
  viability, T/C: 35.6%

## CC1(O)CCCC1n1c(=O)c(C(F)F)cc2cnc(NC3CCN(S(C)(=O)=O)CC3)nc21 (stereo unspecified) + CCn1c(-c2cc(N3CCN(C)CC3)cnc2C(C)OC)c2c3cc(ccc31)-c1csc(n1)CC(NC(=O)C1CC1C)C(=O)N1CCCC(N1)C(=O)OCC(C)(C)C2
Second compound 0.000949 µM
  IC50: 5050 nM
Second compound 0.003 µM
  IC50: 3770 nM
Second compound 0.00949 µM
  IC50: 1060 nM
Second compound 0.03 µM
  IC50: < 31.6 nM
Second compound 0.0949 µM
  IC50: < 31.6 nM
Second compound 0.3 µM
  IC50: < 31.6 nM
[1]
  viability, T/C: 104%
[2]
  viability, T/C: 87.2%
[3]
  viability, T/C: 57.5%
[4]
  viability, T/C: 80.3%
[5]
  viability, T/C: 83.6%
[6]
  viability, T/C: 2.49%
[7]
  viability, T/C: 87.4%
[8]
  viability, T/C: 65.2%
[9]
  viability, T/C: 58.9%
[10]
  viability, T/C: 62.3%
[11]
  viability, T/C: 61.1%
[12]
  viability, T/C: 2.49%
[13]
  viability, T/C: 69.7%
[14]
  viability, T/C: 53.8%
[15]
  viability, T/C: 57.8%
[16]
  viability, T/C: 46.5%
[17]
  viability, T/C: 40.6%
[18]
  viability, T/C: 2.35%
[19]
  viability, T/C: 49.7%
[20]
  viability, T/C: 44.1%
[21]
  viability, T/C: 36.5%
[22]
  viability, T/C: 49.3%
[23]
  viability, T/C: 23.2%
[24]
  viability, T/C: 2.84%
[25]
  viability, T/C: 32.5%
[26]
  viability, T/C: 33.9%
[27]
  viability, T/C: 33.8%
[28]
  viability, T/C: 37.1%
[29]
  viability, T/C: 19.5%
[30]
  viability, T/C: 3.11%
[31]
  viability, T/C: 36.9%
[32]
  viability, T/C: 34.2%
[33]
  viability, T/C: 34.3%
[34]
  viability, T/C: 30.9%
[35]
  viability, T/C: 20.8%
[36]
  viability, T/C: 3.29%

## CC(Nc1ccc2c(c1)OCCn1cc(N3C(=O)OCC3C(F)F)nc1-2)C(N)=O (stereo unspecified) + C=CC(=O)N1CCN(c2nc(OCC3CCCN3C)nc3c(F)c(-c4nc(N)cc(C)c4C(F)(F)F)c(Cl)cc23)C(C)C1
Second compound 0.00316 µM
  IC50: 140 nM
Second compound 0.01 µM
  IC50: 63.4 nM
Second compound 0.0316 µM
  IC50: < 31.6 nM
Second compound 0.1 µM
  IC50: 34.6 nM
Second compound 0.316 µM
  IC50: < 31.6 nM
Second compound 1 µM
  IC50: < 31.6 nM
Second compound 0.00316 µM, first compound 0.0316 µM
  viability, T/C: 57.6%
Second compound 0.00316 µM, first compound 0.1 µM
  viability, T/C: 53.6%
Second compound 0.00316 µM, first compound 0.316 µM
  viability, T/C: 44.2%
Second compound 0.00316 µM, first compound 1 µM
  viability, T/C: 35.5%
Second compound 0.00316 µM, first compound 3.16 µM
  viability, T/C: 30.9%
Second compound 0.00316 µM, first compound 10 µM
  viability, T/C: 19.6%
Second compound 0.01 µM, first compound 0.0316 µM
  viability, T/C: 56.5%
Second compound 0.01 µM, first compound 0.1 µM
  viability, T/C: 44.6%
Second compound 0.01 µM, first compound 0.316 µM
  viability, T/C: 37.8%
Second compound 0.01 µM, first compound 1 µM
  viability, T/C: 32.7%
Second compound 0.01 µM, first compound 3.16 µM
  viability, T/C: 27.7%
Second compound 0.01 µM, first compound 10 µM
  viability, T/C: 18.9%
Second compound 0.0316 µM, first compound 0.0316 µM
  viability, T/C: 47.5%
Second compound 0.0316 µM, first compound 0.1 µM
  viability, T/C: 40.9%
Second compound 0.0316 µM, first compound 0.316 µM
  viability, T/C: 36.1%
Second compound 0.0316 µM, first compound 1 µM
  viability, T/C: 30.2%
Second compound 0.0316 µM, first compound 3.16 µM
  viability, T/C: 24.5%
Second compound 0.0316 µM, first compound 10 µM
  viability, T/C: 16.5%
Second compound 0.1 µM, first compound 0.0316 µM
  viability, T/C: 52%
Second compound 0.1 µM, first compound 0.1 µM
  viability, T/C: 42%
Second compound 0.1 µM, first compound 0.316 µM
  viability, T/C: 39.2%
Second compound 0.1 µM, first compound 1 µM
  viability, T/C: 32.5%
Second compound 0.1 µM, first compound 3.16 µM
  viability, T/C: 24%
Second compound 0.1 µM, first compound 10 µM
  viability, T/C: 15.7%
Second compound 0.316 µM, first compound 0.0316 µM
  viability, T/C: 47.4%
Second compound 0.316 µM, first compound 0.1 µM
  viability, T/C: 37.4%
Second compound 0.316 µM, first compound 0.316 µM
  viability, T/C: 32.9%
Second compound 0.316 µM, first compound 1 µM
  viability, T/C: 30.6%
Second compound 0.316 µM, first compound 3.16 µM
  viability, T/C: 20.5%
Second compound 0.316 µM, first compound 10 µM
  viability, T/C: 16.8%
Second compound 1 µM, first compound 0.0316 µM
  viability, T/C: 43.6%
Second compound 1 µM, first compound 0.1 µM
  viability, T/C: 40.8%
Second compound 1 µM, first compound 0.316 µM
  viability, T/C: 32.2%
Second compound 1 µM, first compound 1 µM
  viability, T/C: 29.6%
Second compound 1 µM, first compound 3.16 µM
  viability, T/C: 24.3%
Second compound 1 µM, first compound 10 µM
  viability, T/C: 13%

Reference: PubChem BioAssay AID2060892 (Molecular Pharmacology Branch, DTP, NCI, 2025)
